Assay [1] has as its target T1, Type-2 angiotensin II receptor (Homo sapiens, UniProt P50052).
T1 sequence (P50052 whole entry): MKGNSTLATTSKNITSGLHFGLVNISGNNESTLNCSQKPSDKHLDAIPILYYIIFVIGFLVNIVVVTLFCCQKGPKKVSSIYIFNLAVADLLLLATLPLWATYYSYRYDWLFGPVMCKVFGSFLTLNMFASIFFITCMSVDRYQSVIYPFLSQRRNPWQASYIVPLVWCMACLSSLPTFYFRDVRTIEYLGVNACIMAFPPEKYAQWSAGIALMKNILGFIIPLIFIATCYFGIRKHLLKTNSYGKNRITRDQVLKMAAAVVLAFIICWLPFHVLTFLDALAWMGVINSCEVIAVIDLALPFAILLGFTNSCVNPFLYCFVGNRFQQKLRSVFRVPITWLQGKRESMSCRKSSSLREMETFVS
In kind it is functional.

Assay [2] addresses 5-hydroxytryptamine receptor 7 (Homo sapiens, UniProt P34969).
For assay [3], the target named is Neurotensin receptor type 1 (Homo sapiens, UniProt P30989).
Neurotensin receptor type 1, sequence (P30989 whole entry): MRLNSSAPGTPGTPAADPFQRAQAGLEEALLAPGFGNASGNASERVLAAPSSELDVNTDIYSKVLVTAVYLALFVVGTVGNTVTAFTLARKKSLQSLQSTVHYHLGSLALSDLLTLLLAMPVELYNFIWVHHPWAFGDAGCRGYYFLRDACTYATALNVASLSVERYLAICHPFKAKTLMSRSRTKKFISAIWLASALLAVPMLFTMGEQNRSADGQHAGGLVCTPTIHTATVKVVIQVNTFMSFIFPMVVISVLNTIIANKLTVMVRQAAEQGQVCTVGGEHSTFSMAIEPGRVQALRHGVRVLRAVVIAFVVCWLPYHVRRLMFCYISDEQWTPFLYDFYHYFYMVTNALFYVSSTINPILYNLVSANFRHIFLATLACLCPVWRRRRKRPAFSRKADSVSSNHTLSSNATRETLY
The target in another assay is Estrogen receptor beta (Homo sapiens, UniProt Q92731).
Estrogen receptor beta, sequence (Q92731 whole entry): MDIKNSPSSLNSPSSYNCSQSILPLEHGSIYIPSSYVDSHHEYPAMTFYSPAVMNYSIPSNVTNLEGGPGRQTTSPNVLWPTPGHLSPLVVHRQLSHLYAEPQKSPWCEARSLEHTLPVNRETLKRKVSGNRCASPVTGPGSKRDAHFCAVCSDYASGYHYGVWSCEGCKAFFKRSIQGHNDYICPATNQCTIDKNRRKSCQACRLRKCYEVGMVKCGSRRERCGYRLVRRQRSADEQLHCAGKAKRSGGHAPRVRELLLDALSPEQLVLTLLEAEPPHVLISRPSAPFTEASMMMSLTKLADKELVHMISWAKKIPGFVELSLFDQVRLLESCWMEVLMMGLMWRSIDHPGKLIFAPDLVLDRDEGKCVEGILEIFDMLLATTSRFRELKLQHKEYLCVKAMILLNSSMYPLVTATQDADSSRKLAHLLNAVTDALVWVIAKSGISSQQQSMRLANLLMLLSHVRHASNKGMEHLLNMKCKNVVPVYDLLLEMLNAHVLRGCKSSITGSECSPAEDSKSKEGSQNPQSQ
In the next assay the target is T2, Progesterone receptor (Homo sapiens, UniProt P06401).
T2 sequence (P06401 whole entry): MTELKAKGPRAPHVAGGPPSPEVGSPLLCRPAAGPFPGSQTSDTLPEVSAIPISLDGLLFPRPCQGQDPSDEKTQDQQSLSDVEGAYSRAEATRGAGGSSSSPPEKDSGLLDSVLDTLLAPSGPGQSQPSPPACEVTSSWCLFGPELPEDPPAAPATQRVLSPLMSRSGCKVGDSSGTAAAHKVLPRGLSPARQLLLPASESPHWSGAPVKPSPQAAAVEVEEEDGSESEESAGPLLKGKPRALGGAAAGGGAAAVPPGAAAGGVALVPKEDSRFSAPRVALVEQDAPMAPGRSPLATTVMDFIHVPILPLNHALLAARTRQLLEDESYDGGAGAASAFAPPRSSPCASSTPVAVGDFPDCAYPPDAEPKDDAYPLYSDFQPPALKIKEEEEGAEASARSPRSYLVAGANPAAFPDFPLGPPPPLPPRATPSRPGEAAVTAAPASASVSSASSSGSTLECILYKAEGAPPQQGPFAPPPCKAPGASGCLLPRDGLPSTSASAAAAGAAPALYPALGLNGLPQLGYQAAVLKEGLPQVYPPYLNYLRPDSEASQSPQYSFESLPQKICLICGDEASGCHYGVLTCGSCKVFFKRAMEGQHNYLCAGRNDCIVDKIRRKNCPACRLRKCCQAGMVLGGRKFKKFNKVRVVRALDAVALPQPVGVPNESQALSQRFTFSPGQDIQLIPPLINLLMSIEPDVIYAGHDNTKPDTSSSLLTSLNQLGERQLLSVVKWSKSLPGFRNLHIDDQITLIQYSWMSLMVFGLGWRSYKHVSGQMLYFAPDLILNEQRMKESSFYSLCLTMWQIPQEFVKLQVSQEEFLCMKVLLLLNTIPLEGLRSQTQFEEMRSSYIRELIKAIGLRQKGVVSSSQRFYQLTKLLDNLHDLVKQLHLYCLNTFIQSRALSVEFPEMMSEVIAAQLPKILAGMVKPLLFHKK

Assay [4] deals with T3, Corticotropin-releasing factor receptor 2 (Homo sapiens, UniProt Q13324).
T3 sequence (Q13324 whole entry): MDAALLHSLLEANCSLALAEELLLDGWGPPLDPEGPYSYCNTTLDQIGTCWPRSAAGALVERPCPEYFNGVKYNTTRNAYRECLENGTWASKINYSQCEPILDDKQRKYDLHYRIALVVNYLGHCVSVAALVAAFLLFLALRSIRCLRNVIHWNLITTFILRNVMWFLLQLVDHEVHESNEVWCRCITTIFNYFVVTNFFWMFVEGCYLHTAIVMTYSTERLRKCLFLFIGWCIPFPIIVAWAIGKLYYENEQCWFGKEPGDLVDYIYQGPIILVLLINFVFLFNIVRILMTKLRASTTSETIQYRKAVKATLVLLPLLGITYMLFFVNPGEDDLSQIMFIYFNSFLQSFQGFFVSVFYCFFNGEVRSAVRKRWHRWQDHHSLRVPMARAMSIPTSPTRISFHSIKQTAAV

A further assay deals with T4, Androgen receptor (Rattus norvegicus, UniProt P15207).
T4 sequence (P15207 whole entry): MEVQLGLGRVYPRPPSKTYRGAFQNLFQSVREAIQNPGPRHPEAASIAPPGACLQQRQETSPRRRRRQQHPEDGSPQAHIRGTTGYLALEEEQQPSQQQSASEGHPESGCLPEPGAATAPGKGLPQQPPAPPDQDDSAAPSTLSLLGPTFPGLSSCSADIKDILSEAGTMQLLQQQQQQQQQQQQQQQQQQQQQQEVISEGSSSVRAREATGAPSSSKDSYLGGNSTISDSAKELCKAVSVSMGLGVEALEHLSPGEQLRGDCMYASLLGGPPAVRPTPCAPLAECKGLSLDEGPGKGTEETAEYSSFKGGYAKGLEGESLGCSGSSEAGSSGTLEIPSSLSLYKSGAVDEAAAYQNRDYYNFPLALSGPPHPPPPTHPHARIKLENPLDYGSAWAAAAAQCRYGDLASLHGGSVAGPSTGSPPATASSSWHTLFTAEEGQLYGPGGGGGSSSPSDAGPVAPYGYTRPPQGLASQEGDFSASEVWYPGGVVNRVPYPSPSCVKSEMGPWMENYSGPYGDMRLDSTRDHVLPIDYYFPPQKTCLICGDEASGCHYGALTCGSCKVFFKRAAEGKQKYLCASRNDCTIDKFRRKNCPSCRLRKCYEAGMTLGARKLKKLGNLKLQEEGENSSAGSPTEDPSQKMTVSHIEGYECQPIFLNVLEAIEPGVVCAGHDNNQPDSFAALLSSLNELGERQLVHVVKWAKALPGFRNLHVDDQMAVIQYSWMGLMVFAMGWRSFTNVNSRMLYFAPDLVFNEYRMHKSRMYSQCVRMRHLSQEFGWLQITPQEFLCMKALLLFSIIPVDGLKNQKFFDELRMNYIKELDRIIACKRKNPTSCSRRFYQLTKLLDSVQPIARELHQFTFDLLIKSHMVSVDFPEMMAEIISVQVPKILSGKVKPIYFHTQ
In kind it is functional.

Assay [5] concerns the target 5-hydroxytryptamine receptor 2A (Homo sapiens, UniProt P28223).

The structures appear in SMILES notation.
Note: assay procedure not described here.

5-hydroxytryptamine receptor 2A, sequence (P28223 whole entry): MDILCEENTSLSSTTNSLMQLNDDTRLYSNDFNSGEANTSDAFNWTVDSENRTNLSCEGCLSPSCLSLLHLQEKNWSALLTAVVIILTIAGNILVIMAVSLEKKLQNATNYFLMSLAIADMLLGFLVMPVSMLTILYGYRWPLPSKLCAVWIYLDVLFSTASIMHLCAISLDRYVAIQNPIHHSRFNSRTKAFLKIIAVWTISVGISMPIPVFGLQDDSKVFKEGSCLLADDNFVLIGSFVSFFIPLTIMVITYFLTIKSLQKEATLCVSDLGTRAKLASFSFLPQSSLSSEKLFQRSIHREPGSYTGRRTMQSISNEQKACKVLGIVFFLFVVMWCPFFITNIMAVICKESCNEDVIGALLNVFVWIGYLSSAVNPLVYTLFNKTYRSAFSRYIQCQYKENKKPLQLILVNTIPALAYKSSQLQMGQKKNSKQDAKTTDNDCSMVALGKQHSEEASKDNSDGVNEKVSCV
5-hydroxytryptamine receptor 7, sequence (P34969 whole entry): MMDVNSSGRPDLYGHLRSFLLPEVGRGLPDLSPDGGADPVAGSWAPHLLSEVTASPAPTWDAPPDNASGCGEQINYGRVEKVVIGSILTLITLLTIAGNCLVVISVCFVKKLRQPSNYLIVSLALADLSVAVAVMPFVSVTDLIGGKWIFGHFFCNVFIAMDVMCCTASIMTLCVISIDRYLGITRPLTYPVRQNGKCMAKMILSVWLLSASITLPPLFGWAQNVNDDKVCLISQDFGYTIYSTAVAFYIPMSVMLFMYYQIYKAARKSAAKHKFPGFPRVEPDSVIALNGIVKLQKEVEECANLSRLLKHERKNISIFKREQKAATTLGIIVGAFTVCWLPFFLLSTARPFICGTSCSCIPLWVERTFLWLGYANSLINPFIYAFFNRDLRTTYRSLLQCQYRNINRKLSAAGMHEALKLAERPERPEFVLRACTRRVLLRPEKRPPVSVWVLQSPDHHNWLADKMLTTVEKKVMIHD

Turning to `N=C(N)NC(=O)c1nc(Cl)c(N)nc1N` [AMILORIDE], the AC50 in assay [1] is over 100 µM; in assay [2] it was over 10 µM; in assay [3], over 30 µM; on Estrogen receptor beta, over 30 µM; at Progesterone receptor, over 30 µM; in assay [4] it was over 30 µM.
Molecule `C[C@]12C=CC(=O)C=C1C(Cl)=C[C@@H]1[C@@H]2[C@@H](O)C[C@@]2(C)[C@H]1CC[C@]2(O)C(=O)CO` [CLOPREDNOL] registered an AC50 on Androgen receptor of over 30 µM.
At Progesterone receptor, `COc1cccc2c1C(=O)c1c(O)c3c(c(O)c1C2=O)C[C@@](O)(C(=O)CO)C[C@@H]3O[C@H]1C[C@H](N)[C@H](O)[C@H](C)O1` [DOXORUBICIN] gave an AC50 of 1.7 µM.
The molecule `CC(C)(Oc1ccc(Cl)cc1)C(=O)OCCOC(=O)c1cccnc1` [ETOFIBRATE] had an AC50 on Androgen receptor of over 30 µM.
Molecule `CC(C)Cc1ccc(C(C)C(=O)OCc2ccccn2)cc1` (stereo unspecified) [IBUPROFEN PICONOL] returned an AC50 in assay [1] of over 100 µM.
As for `C[C@]12C=CC(=O)C=C1CC[C@@H]1[C@@H]2[C@@H](O)C[C@@]2(C)[C@H]1CC[C@]2(O)C(=O)CO` [PREDNISOLONE], the AC50 (in assay [3]; on Estrogen receptor beta; in assay [4]) was over 30 µM throughout.
In the case of `CCC(=O)c1ccc2c(c1)N(CC(C)N(C)C)c1ccccc1S2` (stereo unspecified) [PROPIOMAZINE], in assay [5], the AC50 came to 0.0233 µM.
As to `Cc1ccc(O)c([C@H](CCN(C(C)C)C(C)C)c2ccccc2)c1` [TOLTERODINE], the figures for the AC50 in assay [2] and in assay [5] were over 10 µM and 8.84 µM, respectively.

The term AC50 denotes the concentration giving half of the maximal activity seen.

The values above are taken from ChEMBL document CHEMBL5291721, “A preclinical secondary pharmacology resource illuminates target-adverse drug reaction associations of marketed drugs” (Nat Commun, 2023).
